30 molecules from paper PMC8533206 (Antioxidants, 2021) can be followed below.

A word on the inhibition: it is the change of the read-out against control, counted positive when it falls. By melting point is commonly meant the temperature of the solid-liquid transition.

In series [1] the target is T1, Human recombinant MAO-B (hMAO-B) (Homo sapiens, UniProt P27338).
T1 construct: purchased Sigma-Aldrich; host or cells: insect cells
T1 sequence (P27338 1-520): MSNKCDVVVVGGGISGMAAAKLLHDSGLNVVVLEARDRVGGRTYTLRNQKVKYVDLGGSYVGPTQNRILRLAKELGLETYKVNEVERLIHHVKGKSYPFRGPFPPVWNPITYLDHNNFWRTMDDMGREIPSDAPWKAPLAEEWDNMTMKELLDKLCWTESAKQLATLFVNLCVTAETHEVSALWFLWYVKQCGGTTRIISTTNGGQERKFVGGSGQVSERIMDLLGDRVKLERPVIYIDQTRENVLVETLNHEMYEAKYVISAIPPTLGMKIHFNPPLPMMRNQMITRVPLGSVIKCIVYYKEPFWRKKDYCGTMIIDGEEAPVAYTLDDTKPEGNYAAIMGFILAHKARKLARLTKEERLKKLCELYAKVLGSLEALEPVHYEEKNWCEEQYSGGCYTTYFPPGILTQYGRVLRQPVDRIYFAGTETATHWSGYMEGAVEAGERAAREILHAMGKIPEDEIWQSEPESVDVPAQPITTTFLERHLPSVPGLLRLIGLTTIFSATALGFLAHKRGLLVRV
Briefly: MAO-B inhibition assay (Amplex Red fluorescence, benzylamine substrate). It counts as biochemical. Particulars: single dose 10 µM. The method, then:
The biological evaluation of the tested compounds over both MAO-A and MAO-B was performed following the previously reported method. The MAO activity was measured in relative fluorescence units (RFU) evoked by peroxidase-catalyzed oxidation of Amplex Red® to resorufin, in which H2O2 generated by MAO reaction was used as the electron donor. Human recombinant MAO-A (hMAO-A) and MAO-B (hMAO-B) enzymes expressed in insect cells were obtained from Sigma-Aldrich. The 2 μL of test compound in DMSO (final concentration: 1–10 μM) was treated with 98 μL of hMAO enzyme solution in 50 mM sodium phosphate buffer (pH 7.4, final protein amounts: ~1.25 μg protein/well for MAO-A and ~2.5 μg protein/well for MAO-B) on 96-well black plate and incubated for 15 min at 37 °C. Then, 100 μL of reaction working solution which is a mixed solution of 400 μM Amplex Red® (Cayman, final concentration: 200 μM), 2 U/mL horseradish peroxidase (Sigma-Aldrich, final concentration: 1 U/mL) and 2 mM substrate (p-tyramine for MAO-A, benzylamine for MAO-B, Sigma-Aldrich, final concentration: 1 mM) in 50 mM sodium phosphate buffer (pH 7.4) were added and incubated for 20 min at 37 °C in the dark. The fluorescent intensity was quantified using a microplate reader (SpectraMax®i3, Molecular Device) with an excitation at 545 nm and an emission at 590 nm. The 50% inhibitory concentrations (IC50) of compounds were determined as the mean ± S.E.M. in triplicate from the dose-response inhibition curves using SigmaPlot® 13.0 (Systat Software Inc., San Jose, CA, USA).

Consider `CCNC(=O)Nc1ccc2c(ccn2C(=O)c2cccc(F)c2)c1` [Compound 4a, 1-Ethyl-3-(1-(3-fluorobenzoyl)-1H-indol-5-yl)urea], for which the inhibition at 10 µM in series [1] is 46.2 ± 1.1%. `CCOC(=O)CNC(=O)Nc1ccc2c(ccn2C(=O)c2cccc(F)c2)c1` [Compound 4b, Ethyl ((1-(3-fluorobenzoyl)-1H-indol-5-yl)carbamoyl)glycinate]: the melting point was in the range of 203.3 to 204.3 °C. The inhibition at 10 µM in series [1] amounted to 9.9 ± 1.5%. In the same order, the values of `O=C(NCCCl)Nc1ccc2c(ccn2C(=O)c2cccc(F)c2)c1` [Compound 4c, 1-(2-Chloroethyl)-3-(1-(3-fluorobenzoyl)-1H-indol-5-yl)urea] are 191.3 to 192.3 °C and 26.6 ± 0.6%. Taken in the same sequence, the figures for `O=C(Nc1ccc2c(ccn2C(=O)c2cccc(F)c2)c1)NC1CCCCC1` [Compound 4d, 1-Cyclohexyl-3-(1-(3-fluorobenzoyl)-1H-indol-5-yl)urea] were 222.7 to 223.7 °C and 44 ± 0.8%. In the same order, the values of `O=C(Nc1ccc([N+](=O)[O-])cc1)Nc1ccc2c(ccn2C(=O)c2cccc(F)c2)c1` [Compound 4e, 1-(1-(3-Fluorobenzoyl)-1H-indol-5-yl)-3-(4-nitrophenyl)urea] are 249.1 to 250.1 °C and 47.9 ± 1.6%. For `COc1ccc(NC(=O)Nc2ccc3c(ccn3C(=O)c3cccc(F)c3)c2)cc1` [Compound 4f, 1-(1-(3-Fluorobenzoyl)-1H-indol-5-yl)-3-(4-methoxyphenyl)urea], the inhibition at 10 µM in series [1] is 32.5 ± 1.4%. With `COc1cc(NC(=O)Nc2ccc3c(ccn3C(=O)c3cccc(F)c3)c2)cc(OC)c1` [Compound 4g, 1-(3,5-Dimethoxyphenyl)-3-(1-(3-fluorobenzoyl)-1H-indol-5-yl)urea], the melting point was in the range of 235.6 to 236.6 °C. The inhibition at 10 µM in series [1] was 55.7 ± 0.2%. Regarding `O=C(Nc1cc(Cl)cc(Cl)c1)Nc1ccc2c(ccn2C(=O)c2cccc(F)c2)c1` [Compound 4h, 1-(3,5-Dichlorophenyl)-3-(1-(3-fluorobenzoyl)-1H-indol-5-yl)urea], the inhibition at 10 µM in series [1] came to 38.6 ± 1.6%.

As to `O=C(Nc1ccc(F)cc1)Nc1ccc2c(ccn2C(=O)c2cccc(F)c2)c1` [Compound 4i, 1-(1-(3-Fluorobenzoyl)-1H-indol-5-yl)-3-(4-fluorophenyl)urea], the melting point lay in the range of 264.3 to 265.3 °C. Also, in series [1], the inhibition at 10 µM worked out at 37 ± 0.9%.

With `O=C(Nc1ccc(Cl)c(Cl)c1)Nc1ccc2c(ccn2C(=O)c2cccc(F)c2)c1` [Compound 4j, 1-(3,4-Dichlorophenyl)-3-(1-(3-fluorobenzoyl)-1H-indol-5-yl)urea], the inhibition at 10 µM in series [1] turned out to be 53.5 ± 0.3%.

For `O=C(Nc1ccc(Cl)c(C(F)(F)F)c1)Nc1ccc2c(ccn2C(=O)c2cccc(F)c2)c1` [Compound 4k, 1-(4-Chloro-3-(trifluoromethyl)phenyl)-3-(1-(3-fluorobenzoyl)-1H-indol-5-yl)urea], the melting point lay in the range of 210.9 to 211.9 °C. The inhibition at 10 µM in series [1] was 42.1 ± 1.7%. Taken in the same sequence, the figures for `O=C(NCCc1ccc(F)cc1)Nc1ccc2c(ccn2C(=O)c2cccc(F)c2)c1` [Compound 4l, 1-(1-(3-Fluorobenzoyl)-1H-indol-5-yl)-3-(4-fluorophenethyl)urea] were 231.5 to 232.5 °C and 42 ± 0.6%. `O=C(Nc1ccc(Oc2ccccc2)cc1)Nc1ccc2c(ccn2C(=O)c2cccc(F)c2)c1` [Compound 4m, 1-(1-(3-Fluorobenzoyl)-1H-indol-5-yl)-3-(4-phenoxyphenyl)urea] yielded a melting point of 235.2 to 236.2 °C. The inhibition at 10 µM in series [1] came out at 38.1 ± 0.5%. For the molecule `O=C(Nc1ccc(N2CCOCC2)cc1)Nc1ccc2c(ccn2C(=O)c2cccc(F)c2)c1` [Compound 4n, 1-(1-(3-Fluorobenzoyl)-1H-indol-5-yl)-3-(4-morpholinophenyl)urea], the inhibition at 10 µM in series [1] turned out to be 32.9 ± 0.3%. For `CCOC(=O)NC(=S)Nc1ccc2c(ccn2C(=O)c2cccc(F)c2)c1` [Compound 5a, 1-Ethoxycarbonyl-3-(1-(3-fluorobenzoyl)-1H-indol-5-yl)thiourea], the melting point was 199.4 to 200.4 °C. Also, the inhibition at 10 µM in series [1] was determined as 15.5 ± 1.1%.

In the case of `O=C(c1cccc(F)c1)n1ccc2cc(NC(=S)NCCCl)ccc21` [Compound 5b, 1-(2-Chloroethyl)-3-(1-(3-fluorobenzoyl)-1H-indol-5-yl)thiourea], the melting point fell in the range of 221.5 to 222.5 °C. The inhibition at 10 µM in series [1] worked out at 45.6 ± 1.2%. The molecule `O=C(c1cccc(F)c1)n1ccc2cc(NC(=S)Nc3ccc(N4CCOCC4)cc3)ccc21` [Compound 5c, 1-(1-(3-Fluorobenzoyl)-1H-indol-5-yl)-3-(4-morpholinophenyl)thiourea] gave a melting point of 192.7 to 193.7 °C. In series [1], the inhibition at 10 µM is 43.9 ± 1.1%. Take `O=C(c1cccc(F)c1)n1ccc2cc(NC(=S)NCCN3CCOCC3)ccc21` [Compound 5d, 1-(1-(3-Fluorobenzoyl)-1H-indol-5-yl)-3-(2-morpholinoethyl)thiourea]: the inhibition at 10 µM in series [1] was 46.8 ± 0.2%.

In the case of `O=C(c1cccc(F)c1)n1ccc2cc(NC(=S)NCCN3CCCCC3)ccc21` [Compound 5e, 1-(1-(3-Fluorobenzoyl)-1H-indol-5-yl)-3-(2-(piperidin-1-yl)ethyl)thiourea], the melting point lay within 187.1 to 188.1 °C. For the same molecule, in series [1], the inhibition at 10 µM was found to be 44.7 ± 0.5%. In the same order, the values of `O=C(c1cccc(F)c1)n1ccc2cc(NC(=S)NCc3ccco3)ccc21` [Compound 5f, 1-(1-(3-Fluorobenzoyl)-1H-indol-5-yl)-3-(furan-2-ylmethyl)thiourea] are 152.6 to 153.6 °C and 34.1 ± 0.7%. Take `O=C(c1cccc(F)c1)n1ccc2cc(NC(=S)Nc3ccc([N+](=O)[O-])cc3)ccc21` [Compound 5g, 1-(1-(3-Fluorobenzoyl)-1H-indol-5-yl)-3-(4-nitrophenyl)thiourea]: the inhibition at 10 µM in series [1] was 30.6 ± 0.9%. Molecule `COc1cc(NC(=S)Nc2ccc3c(ccn3C(=O)c3cccc(F)c3)c2)cc(OC)c1` [Compound 5h, 1-(3,5-Dimethoxyphenyl)-3-(1-(3-fluorobenzoyl)-1H-indol-5-yl)thiourea] displayed a melting point of 171.1 to 172.1 °C. For the same molecule, the inhibition at 10 µM in series [1] was 32.5 ± 0.5%. In the same order, the values of `O=C(c1cccc(F)c1)n1ccc2cc(NC(=S)Nc3ccc(Cl)c(Cl)c3)ccc21` [Compound 5i, 1-(3,4-Dichlorophenyl)-3-(1-(3-fluorobenzoyl)-1H-indol-5-yl)thiourea] are 193.4 to 194.4 °C and 59.8 ± 0.4%. Taken in the same sequence, the figures for `O=C(c1cccc(F)c1)n1ccc2cc(NC(=S)Nc3cccnc3)ccc21` [Compound 5j, 1-(1-(3-Fluorobenzoyl)-1H-indol-5-yl)-3-(pyridin-3-yl)thiourea] were 144.9 to 145.9 °C and 51.1 ± 0.4%. Taken in the same sequence, the figures for `O=C(Nc1ccc2c(ccn2C(=O)c2cccc(F)c2)c1)c1ccnc([N+](=O)[O-])c1` [Compound 6a, N-(1-(3-Fluorobenzoyl)-1H-indol-5-yl)-2-nitroisonicotinamide] were 278.1 to 279.1 °C and 26.8 ± 1.3%.

For the molecule `CCOC(=O)Nc1ccc2c(ccn2C(=O)c2cccc(F)c2)c1` [Compound 6b, Ethyl (1-(3-fluorobenzoyl)-1H-indol-5-yl)carbamate], the melting point is 136.5 to 137.5 °C. The inhibition at 10 µM in series [1] turned out to be 33.8 ± 2.3%.

With `CCOC(=O)C(=O)Nc1ccc2c(ccn2C(=O)c2cccc(F)c2)c1` [Compound 6c, Ethyl 2-((1-(3-fluorobenzoyl)-1H-indol-5-yl)amino)-2-oxoacetate], the inhibition at 10 µM in series [1] is 35.5 ± 1.5%. Consider `O=C(Nc1ccc2c(ccn2C(=O)c2cccc(F)c2)c1)c1ccc(Cl)c(Cl)c1` [Compound 6d, 3,4-Dichloro-N-(1-(3-fluorobenzoyl)-1H-indol-5-yl)benzamide], for which the melting point was 237.6 to 238.6 °C. Moreover, the inhibition at 10 µM in series [1] was found to be 53 ± 0.3%. Taken in the same sequence, the figures for `O=C(Nc1ccc2c(ccn2C(=O)c2cccc(F)c2)c1)c1coc2ccccc2c1=O` [Compound 6e, N-(1-(3-fluorobenzoyl)-1H-indol-5-yl)-4-oxo-4H-chromene-3-carboxamide] were 226.6 to 227.6 °C and 59.6 ± 0.3%.

On to `O=C(Nc1ccc(F)c(Cl)c1)c1ccc2[nH]ccc2c1` [Compound 8c, N-(3-chloro-4-fluorophenyl)-1H-indole-5-carboxamide], for which the inhibition at 10 µM in series [1] turned out to be 34.2 ± 0.2%.
